# Positions of bridges follow the written chain, without caps; N, C: chain ends. Non-standard residues stand in square brackets, D forms with d. Residues, ends and D or L forms follow the SMILES beside them. *: point of attachment. X1 = CC[C@H](C)CCCCC(=O)*; Dab = NCC[C@H](N)C(=O)O
# Test: Colistin concentration in plasma after CMS nebulization
# Assay type: in vivo
# Details: human, inhaled or intranasal, 20 patients
# Description: Patients were treated with CMS (Xellia Pharmaceuticals ApS, Copenhagen, Denmark) at a total of 3.75 MIU (equivalent to 300 mg of CMS or 112.5 mg of CBA) administered four times a day at 6 h intervals. CMS was dissolved in 5 mL of normal saline and administered over 30 min through a jet nebulizer (Sileo 54, Macjin Medical, Seoul, Republic of Korea) connected to the ventilator circuit. Bronchoalveolar lavage fluid (BALF) was obtained by instilling 20 mL of normal saline into the right middle lobe or left lingular segmental bronchus using a bronchoscope, followed by immediate aspiration and collection into a syringe. Samples were collected immediately before the nebulization treatment and at 1, 3, and 5 h after the start of the treatment. Blood samples were collected before the nebulization treatment and at 1, 2, 3, and 5 h thereafter. Both BALF and blood samples were centrifuged at 3000× g for 10 min within 1 h of collection and the supernatant was isolated. Samples were then stored in a refrigerator at a temperature below −70 °C.
# A validated liquid chromatography–tandem mass spectrometry assay was used to determine colistin concentrations in BALF and plasma samples. The HPLC equipment consisted of an Agilent 1200 series modular system and an Atlantis C18 column (Company, Waters, Milford, MA, USA) (2.1 mm × 150 mm, 3.0 μm). Mobile phases A and B were water and acetonitrile, respectively. Both phases contained 0.1% formic acid. A gradient elution program was started at 10% B, increased to 35% for 1 min, maintained at this composition for 3.8 min, and returned to the initial composition for 5 min to re-equilibrate the column. Mass spectrometry (MS) was performed using a triple-quadruple mass spectrometer (SCIEX QTRAP5500, Applied Biosystems, Foster City, CA, USA) with an electrospray ionization (ESI) interface. The ESI source was set to positive ionization mode. The parent to product transition (m/z) was 578.483→101.071 for colistin A, 585.453→101.071 for colistin B, and 602.527→101.000 for polymyxin B. Data acquisition and processing were performed using the Analyst software (version 1.7.1; Applied Biosystems, Foster City, CA, USA). Stock solutions of colistin and IS were prepared in deionized water at concentrations of 10 mg/mL, and both were stored at −20 °C. Working solutions of colistin were prepared in deionized water (dilutions of 2, 5, 10, 50, 100, 500, and 1000 μg/mL). Calibration standards were prepared by spiking 247.5 μL of drug-free plasma with 2.5 μL of colistin working solution. Low (colistin A; 11.16 ng/mL, colistin B; 48.84 ng/mL), moderate (colistin A; 186 ng/mL, colistin B; 814 ng/mL), and high (colistin A; 1488 ng/mL, colistin B; 6512 ng/mL) concentrations of QC samples were prepared. Sample pretreatment involved a solid phase extraction. A 250 μL aliquot of plasma was pipetted into a 1.5 mL Eppendorf tube, to which 10 μL of IS (10 μg/mL, polymyxin B) and 740 μL of deionized water were added. This mixture was loaded into a cartridge that had been preconditioned twice with 1 mL of methanol and 1 mL of deionized water. After the plasma mixture was loaded, the cartridge was washed with 1 mL of deionized water. One milliliter of methanol including 0.1% formic acid was used for extraction. Extraction liquid was evaporated by vacuum concentrator (Speedvac, Thermo Fisher Scientific Inc., Waltham, MA, USA) at 45 °C for 2.5 h. Samples were reconstituted in 100 μL deionized water containing 0.1% formic acid. […]
smiles,measurement,setting,value
CC[C@H](C)CCCCC(=O)N[C@@H](CCN)C(=O)N[C@H](C(=O)N[C@@H](CCN)C(=O)N[C@H]1CCNC(=O)[C@H]([C@@H](C)O)NC(=O)[C@H](CCN)NC(=O)[C@H](CCN)NC(=O)[C@H](CC(C)C)NC(=O)[C@@H](CC(C)C)NC(=O)[C@H](CCN)NC1=O)[C@@H](C)O [colistin] (X1-[Dab]T[Dab][Dab][Dab][dL]L[Dab][Dab]T; lactam 4-C),level at 1 h,"1 h after start (time by position in Figure 1c), CMS 0.9375 MIU nebulized over 30 min, LC-MS/MS, read-out: Median colistin concentration in plasma",19.2 ng/mL
same,level at 2 h,"2 h after start (time by position in Figure 1c), CMS 0.9375 MIU nebulized over 30 min, LC-MS/MS, read-out: Median colistin concentration in plasma",29.8 ng/mL
same,level at 3 h,"3 h after start (time by position in Figure 1c), CMS 0.9375 MIU nebulized over 30 min, LC-MS/MS, read-out: Median colistin concentration in plasma",37.7 ng/mL
same,level at 5 h,"5 h after start (time by position in Figure 1c), CMS 0.9375 MIU nebulized over 30 min, LC-MS/MS, read-out: Median colistin concentration in plasma",32.6 ng/mL
same,Cmax,"nebulized CMS 0.9375 MIU over 30 min, monitored over 5 h, read-out: Observed peak colistin concentration in plasma, median (IQR)",43.5 ng/mL
